Assay results: patent publication US20230203031A1, “COMPOUNDS USEFUL FOR INHIBITING CDK7” (Eli Lilly and Company, priority 2020, published 2023)
Read-outs that look alike come from different tables or passages of the source.

Tests used:
[1] = test system: cMyc in HCT116 cells; experiment: cMyc cell based Acumen assay; conditions: read-out: Relative IC50 for cMyc
Procedure: HCT116 cells (ATCC CCL-247) are cultured in McCoy’s 5 Å Medium Modified media supplemented with 10% FBS, 1% NaPyr, and 1% Pen/Strep and plated (prior to becoming 70% confluent) in 96-well flat-bottom plates at a density of 5,000 cells per well in 100 µL volume. The cells are then incubated overnight in a cell culture incubator (5% CO2, 95% Relative Humidity (RH), and 37° C.) and allowed to attach to the plate. The following morning the cells are dosed with compounds. Compound inhibitors are solubilized at 60 µM in culture medium containing 0.6% DMSO. Subsequently, compound serial dilutions (1:3) are prepared over a 60 µM to 0.003 µM range. Cells are dosed with the addition of 50 µL from serial dilution plate to assay plate containing cell attached with 100 µL of media producing a final DMSO concentration of 0.2% with a final compound concentration dose range between 20 µM and 0.001 µM. For max point media containing 0.2% of DMSO is used and for min point, a reference compound diluted at 0.83 µM final concentration in the growth media containing 0.2% DMSO is used. After dosing with compounds, the cell plates are incubated at 37° C. and 5% CO2 for 4 hours. Growth media is removed carefully and the cells are fixed by adding 100 µL of 4% para-formaldehyde for 30 minutes at RT. Cell are washed once with PBS and incubated with 100 µL of cold MeOH for 15 minutes at RT for cell permeation. Again cell are washed twice with PBS (100 µL/each) and blocked with 100 µL/well of 1% BSA/PBS for 30 minutes at RT. 50 µL of 1:1000 primary antibody (Anti-c-Myc antibody [Y69] Abcam cat# ab32072) dilution in 1% BSA/PBS are added per well, the plates sealed and incubated overnight at 4° C. The following day cells are washed three times with PBS (100 µL/well) and incubated with 50 µL/well of secondary antibody (1:2000 dilution, Goat anti-rabbit IgM ALEXA FLUOR™ 488) in PBS for 1 hour at RT. After wash 3× with PBS (100 µL/well), 100 µL of 50 µg/mL RNAase and 1:1000 propidium iodide (Invitrogene) dilution in PBS are added per well. Plates are sealed and incubated for 1 hour at RT on the bench (preserved from light). Plates are analyzed on Acumen on FL2 (mean intensity), and FL3 (total intensity). Fluorescence Plates are scanned with ACUMEN EXPLORER™ [Laser-scanning fluorescence microplate cytometer manufactured by TTP LABTECH LTD] to measure anti-phospho-carboxyl terminal domain at Serine 5 (pCTD). Image analysis is based on cellular fluorescent signals for identifying positive cells. pCTD (S5) positive cells are identified by mean intensity at 500-530 above the threshold. Total intensity at 575-640 from propidium iodide/DNA is used to identify individual cells. Assay output is % pCTD positive cells. The IC50 is determined by curve fitting to a four parameter logistic for each output using GENE DATA™.

[2] = test system: HCC1806; experiment: Cell proliferation assay (CELL TITER GLO), HCC1806; type: cell-based; conditions: Homo sapiens, 144 h; HCC1806 breast cancer, six days after compound addition
Procedure: Cell lines are plated at the density 5000 cells per well in 100 µL per well growth medium into a white 96-well cell culture plate. See Table 1 for cell line and culture medium information. Plates are incubated at 37° C. and 5% CO2. The following day, a serial dilution of the test compound is prepared by diluting the compound 1:3 in DMSO for 10 points. The DMSO plate is 1000X the final concentration. In addition to the CDK7 inhibitor, a DMSO alone column is included as a maximum growth control and 10 µM staurosporine final column is included as a maximum growth inhibition control. A 10X dilution plate is then prepared by adding 2 µL per well from the 1000X DMSO plate to 198 µL per well of OMEM (Life Technologies, Carlsbad, CA, cat#31985-070). Cells are treated with indicated compound by adding 11 µL per well from the 10X OMEM plate to the cell plate containing 100 µL per well growth medium for a 1X final concentration. Plates are placed back into the incubator at 37° C. and 5% CO2. Six or seven days after compound addition, for HCC1806 or A2780 cells respectively, plates are removed from the incubator and allowed to equilibrate to RT. […] After 15 minute incubation on shaker, luminescence is read, 1 second per well, using a Wallac VICTOR2™. […]

| Compound | IC50 ([1]; 4 hours) [nM] | IC50 ([1]; Homo sapiens, HCT-116, 4 h) [nM] | IC50 [2] [nM] |
| --- | --- | --- | --- |
| C=CC(=O)N1CCO[C@H](CN2CCC(Nc3cc(C(C)F)cn4c(C(C)C)cnc34)CC2)C1 (single isomer, unassigned) [Example 2] | 94.7 |  |  |
| [2H]CC([2H])(C)c1cnc2c(NC3CCN(C[C@@H]4CN(C(=O)C=C)CCO4)CC3)cc(C(F)(F)F)cn12 (mixture of isomers) [Example 7, 1-[(2R)-2-[[4-[[3-[rac-1,2-dideuterio-1-methyl-ethyl]-6-(trifluoromethyl)imidazo[1,2-a]pyridin-8-yl]amino]-1-piperidyl]methyl]morpholin-4-yl]prop-2-en-1-one] |  | 13.8 |  |
| C=CC(=O)N1CCO[C@H](CN2CCC(Nc3cc(C(C)O)cn4c(C(C)C)cnc34)CC2)C1 (single isomer, unassigned) [Example 5] | 140 |  |  |
| C=CC(=O)N1CCO[C@H](CN2CCC(Nc3cc(C(F)(F)F)cn4c(C(C)C)cnc34)CC2)C1 [Example 8, 1-[(2R)-2-[[4-[[3-isopropyl-6-(trifluoromethyl)imidazo[1,2-a]pyridin-8-yl]amino]-1-piperidyl]methyl]morpholin-4-yl]prop-2-en-1-one] |  | 24.5 |  |
| [2H]C([2H])=C([2H])C(=O)N1CCO[C@H](CN2CCC(Nc3cc(C(F)(F)F)cn4c(C(C)C)cnc34)CC2)C1 [Example 6, 2,3,3-trideuterio-1-[(2R)-2-[[4-[[3-isopropyl-6-(trifluoromethyl)imidazo[1,2-a]pyridin-8-yl]amino]-1-piperidyl]methyl]morpholin-4-yl]prop-2-en-1-one] |  | 7.91 |  |
| C=CC(=O)N1CCO[C@H](CN2CCC(Nc3cc(C(C)F)cn4c(C(C)C)cnc34)CC2)C1 (single isomer, unassigned) [Example 1] |  | 82 | 19.5 |
| C=CC(=O)N1CCO[C@H](CN2CCC(Nc3cc(C(C)O)cn4c(C(C)C)cnc34)CC2)C1 (single isomer, unassigned) [Example 4] | 38 |  |  |
